Results: patent US9050341B2, “Methods of treating drug resistant and other tumors by administering 6,7-dialkoxy quinazoline derivatives” (NATCO PHARMA LIMITED, priority 2009, dated 2015)

Key:
Assay in all cases: KinomeScan kinase profiling
Assay type in all cases: binding
[1] = target: T1, PCTK2 (Homo sapiens, UniProt Q00537)
T1 construct: host or cells: E. coli host derived from the BL21 strain, infected with T7 phage
Method in brief: (§1)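 Kinases were expressed as T7 phage fusions in a BL21-derived E. coli host and the cleared lysates were used. Ligand beads were blocked with biotin and buffer (1% BSA, 0.05% Tween 20, 1 mM DTT). Compounds came from 40× DMSO stocks, and phage in the eluates was titred by qPCR.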

[2] = target: T2, KIT (V559D) (Homo sapiens, UniProt P10721, V559D)
T2 construct: host or cells: T7 phage in E. coli host derived from BL21
Method in brief: as §1

[3] = target: T3, LATS1 (Homo sapiens, UniProt O95835)
T3 construct: host or cells: T7 phage in E. coli host derived from BL21
Method in brief: as §1

[4] = target: T4, TRKC (Homo sapiens, UniProt Q16288)
T4 construct: purchased Ambit Biosciences Corp (KinomeScan); host or cells: E. coli host derived from the BL21 strain (T7 phage lysate)
Method in brief: as §1

[5] = target: T5, CDK8 (Homo sapiens, UniProt P49336)
T5 construct: host or cells: T7 phage in E. coli (BL21-derived)
Method in brief: as §1

[6] = target: T6, DMPK (Homo sapiens, UniProt Q09013)
T6 construct: purchased Ambit Biosciences Corp (KinomeScan); host or cells: T7 phage in E. coli host derived from BL21
Method in brief: as §1

[7] = target: T7, JAK3 (JH1domain-catalytic) (Homo sapiens, UniProt P52333)
T7 construct: JAK3 (JH1domain-catalytic); host or cells: T7 phage in E. coli host derived from BL21
Method in brief: as §1

[8] = target: T8, LKB1 (Homo sapiens, UniProt Q15831)
T8 construct: host or cells: E. coli derived from BL21, infected with T7 phage
Method in brief: as §1

[9] = target: T9, MAP4K5 (Homo sapiens, UniProt Q9Y4K4)
T9 construct: host or cells: E. coli derived from BL21, infected with T7 phage
Method in brief: as §1

[10] = target: T10, TEC (Homo sapiens, UniProt P42680)
T10 construct: host or cells: E. coli host derived from the BL21 strain, T7 phage lysate
Method in brief: as §1

[11] = target: T11, PRKCH (Homo sapiens, UniProt P24723)
T11 construct: purchased Ambit Biosciences Corp (KinomeScan); host or cells: E. coli host derived from BL21, infected with T7 phage
Method in brief: as §1

[12] = target: T12, FGFR3 (G697C) (Homo sapiens, UniProt P22607, G697C)
T12 construct: host or cells: E. coli host derived from BL21, infected with T7 phage
Method in brief: as §1

[13] = target: T13, TRKA (Homo sapiens, UniProt P04629)
T13 construct: purchased Ambit Biosciences Corp (KinomeScan); host or cells: E. coli host derived from the BL21 strain (T7 phage lysate)
Method in brief: as §1

[14] = target: T14, ABL1 (Homo sapiens, UniProt P00519)
T14 construct: host or cells: E. coli host derived from BL21 (T7 phage lysate)
Method in brief: as §1

[15] = target: T15, GAK (Homo sapiens, UniProt O14976)
T15 construct: host or cells: E. coli host derived from BL21, infected with T7 phage
Method in brief: as §1

[16] = target: T16, MAPKAPK5 (Homo sapiens, UniProt Q8IW41)
T16 construct: host or cells: E. coli derived from BL21, infected with T7 phage
Method in brief: as §1

[17] = target: T17, CHEK2 (Homo sapiens, UniProt O96017)
T17 construct: host or cells: T7 phage in E. coli (BL21-derived)
Method in brief: as §1

[18] = target: T18, CAMK2A (Homo sapiens, UniProt Q9UQM7)
T18 construct: purchased Ambit Biosciences Corp (KinomeScan); host or cells: E. coli host derived from the BL21 strain, T7 phage
Method in brief: as §1

[19] = target: T19, AMPK-alpha1 (Homo sapiens, UniProt Q13131)
T19 construct: host or cells: E. coli host derived from BL21 (T7 phage lysate)
Method in brief: as §1

[20] = target: T20, EPHB3 (Homo sapiens, UniProt P54753)
T20 construct: host or cells: E. coli host derived from BL21, T7 phage lysate
Method in brief: as §1

[21] = target: T21, p38-gamma (Homo sapiens, UniProt P53778)
T21 construct: host or cells: E. coli host derived from the BL21 strain, infected with T7 phage
Method in brief: as §1

T21 sequence (P53778 whole entry): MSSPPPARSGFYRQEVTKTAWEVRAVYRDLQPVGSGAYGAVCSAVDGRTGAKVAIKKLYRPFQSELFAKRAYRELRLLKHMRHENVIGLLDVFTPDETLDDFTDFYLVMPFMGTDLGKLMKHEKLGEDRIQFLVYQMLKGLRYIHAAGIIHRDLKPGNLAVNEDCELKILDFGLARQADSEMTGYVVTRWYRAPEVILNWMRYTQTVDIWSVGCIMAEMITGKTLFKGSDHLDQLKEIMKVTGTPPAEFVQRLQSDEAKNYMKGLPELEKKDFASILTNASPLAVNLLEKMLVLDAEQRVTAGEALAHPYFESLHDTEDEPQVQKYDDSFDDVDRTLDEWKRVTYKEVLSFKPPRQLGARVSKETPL
T15 sequence (O14976 whole entry): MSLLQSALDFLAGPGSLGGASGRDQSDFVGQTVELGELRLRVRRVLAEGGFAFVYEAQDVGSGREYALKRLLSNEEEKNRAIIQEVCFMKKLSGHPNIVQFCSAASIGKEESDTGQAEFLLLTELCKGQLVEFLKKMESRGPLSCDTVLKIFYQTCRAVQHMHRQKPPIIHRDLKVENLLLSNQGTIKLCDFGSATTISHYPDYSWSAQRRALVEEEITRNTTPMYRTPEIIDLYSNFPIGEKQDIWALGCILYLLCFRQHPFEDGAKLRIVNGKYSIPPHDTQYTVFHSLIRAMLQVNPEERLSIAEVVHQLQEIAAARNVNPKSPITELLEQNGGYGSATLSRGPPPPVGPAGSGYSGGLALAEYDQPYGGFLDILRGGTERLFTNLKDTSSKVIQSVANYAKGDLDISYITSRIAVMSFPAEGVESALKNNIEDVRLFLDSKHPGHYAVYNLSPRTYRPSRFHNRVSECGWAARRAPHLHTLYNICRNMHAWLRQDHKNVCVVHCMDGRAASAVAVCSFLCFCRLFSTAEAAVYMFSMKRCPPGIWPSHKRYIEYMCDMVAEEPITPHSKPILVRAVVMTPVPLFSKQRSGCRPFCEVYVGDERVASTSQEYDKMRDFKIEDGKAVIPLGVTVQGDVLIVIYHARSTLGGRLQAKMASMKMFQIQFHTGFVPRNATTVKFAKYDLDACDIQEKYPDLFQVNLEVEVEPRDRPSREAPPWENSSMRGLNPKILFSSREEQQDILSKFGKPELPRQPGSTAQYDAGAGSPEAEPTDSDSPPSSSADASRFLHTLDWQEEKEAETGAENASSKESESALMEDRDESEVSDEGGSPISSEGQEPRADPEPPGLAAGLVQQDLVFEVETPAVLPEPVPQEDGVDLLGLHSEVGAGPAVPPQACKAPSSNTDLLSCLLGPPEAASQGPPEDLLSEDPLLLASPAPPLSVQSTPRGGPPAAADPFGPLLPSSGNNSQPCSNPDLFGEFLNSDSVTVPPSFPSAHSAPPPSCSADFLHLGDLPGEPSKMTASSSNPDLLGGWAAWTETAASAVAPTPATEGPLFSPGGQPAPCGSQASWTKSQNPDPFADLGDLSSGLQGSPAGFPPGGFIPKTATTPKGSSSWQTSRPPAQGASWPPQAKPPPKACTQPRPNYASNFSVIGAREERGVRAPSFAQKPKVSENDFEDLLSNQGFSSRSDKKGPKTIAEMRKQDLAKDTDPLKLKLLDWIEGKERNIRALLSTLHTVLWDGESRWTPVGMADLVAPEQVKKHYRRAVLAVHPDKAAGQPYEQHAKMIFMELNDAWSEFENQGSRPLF
T7 sequence (P52333 822-1111 limits assumed): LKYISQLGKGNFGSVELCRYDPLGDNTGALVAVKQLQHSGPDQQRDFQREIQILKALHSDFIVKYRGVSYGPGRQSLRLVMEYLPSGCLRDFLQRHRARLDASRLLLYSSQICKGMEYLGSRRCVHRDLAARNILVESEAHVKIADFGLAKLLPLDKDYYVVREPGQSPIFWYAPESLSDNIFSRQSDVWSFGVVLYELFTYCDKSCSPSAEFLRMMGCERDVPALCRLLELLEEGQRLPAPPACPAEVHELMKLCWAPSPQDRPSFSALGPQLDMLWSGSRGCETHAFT
T19 sequence (Q13131 whole entry): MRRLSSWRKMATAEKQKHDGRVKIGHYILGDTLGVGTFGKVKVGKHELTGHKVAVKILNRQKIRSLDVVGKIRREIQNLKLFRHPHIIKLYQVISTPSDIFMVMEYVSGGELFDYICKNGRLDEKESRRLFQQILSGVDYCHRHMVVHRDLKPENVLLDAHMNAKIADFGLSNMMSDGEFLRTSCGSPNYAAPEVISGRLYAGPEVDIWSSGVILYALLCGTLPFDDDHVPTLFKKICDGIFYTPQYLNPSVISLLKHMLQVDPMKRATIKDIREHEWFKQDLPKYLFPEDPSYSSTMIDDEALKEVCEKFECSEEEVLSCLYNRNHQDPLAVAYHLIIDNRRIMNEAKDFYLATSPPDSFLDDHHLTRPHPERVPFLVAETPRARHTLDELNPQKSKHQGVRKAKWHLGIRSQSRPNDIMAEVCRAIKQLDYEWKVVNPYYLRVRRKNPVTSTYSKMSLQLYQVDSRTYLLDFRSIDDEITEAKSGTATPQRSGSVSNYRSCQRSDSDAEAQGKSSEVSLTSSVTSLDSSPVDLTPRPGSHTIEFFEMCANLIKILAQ
T10 sequence (P42680 whole entry): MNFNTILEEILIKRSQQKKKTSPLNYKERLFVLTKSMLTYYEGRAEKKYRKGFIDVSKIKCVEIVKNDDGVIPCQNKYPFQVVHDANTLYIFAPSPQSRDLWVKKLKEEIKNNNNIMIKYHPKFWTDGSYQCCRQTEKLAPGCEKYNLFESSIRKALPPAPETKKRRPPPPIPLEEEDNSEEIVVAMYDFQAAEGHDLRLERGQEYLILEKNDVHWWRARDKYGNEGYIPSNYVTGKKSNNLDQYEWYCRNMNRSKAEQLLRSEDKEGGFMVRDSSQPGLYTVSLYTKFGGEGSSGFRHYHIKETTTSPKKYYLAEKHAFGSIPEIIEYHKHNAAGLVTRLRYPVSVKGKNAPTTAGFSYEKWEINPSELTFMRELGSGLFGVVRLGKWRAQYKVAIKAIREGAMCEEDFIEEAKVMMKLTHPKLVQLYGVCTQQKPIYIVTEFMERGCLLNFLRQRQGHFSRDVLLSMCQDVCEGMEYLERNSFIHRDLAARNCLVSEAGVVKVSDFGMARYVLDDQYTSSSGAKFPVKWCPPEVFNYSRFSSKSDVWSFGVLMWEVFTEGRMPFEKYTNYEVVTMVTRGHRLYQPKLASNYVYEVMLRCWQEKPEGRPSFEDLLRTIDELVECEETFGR
T20 sequence (P54753 34-998): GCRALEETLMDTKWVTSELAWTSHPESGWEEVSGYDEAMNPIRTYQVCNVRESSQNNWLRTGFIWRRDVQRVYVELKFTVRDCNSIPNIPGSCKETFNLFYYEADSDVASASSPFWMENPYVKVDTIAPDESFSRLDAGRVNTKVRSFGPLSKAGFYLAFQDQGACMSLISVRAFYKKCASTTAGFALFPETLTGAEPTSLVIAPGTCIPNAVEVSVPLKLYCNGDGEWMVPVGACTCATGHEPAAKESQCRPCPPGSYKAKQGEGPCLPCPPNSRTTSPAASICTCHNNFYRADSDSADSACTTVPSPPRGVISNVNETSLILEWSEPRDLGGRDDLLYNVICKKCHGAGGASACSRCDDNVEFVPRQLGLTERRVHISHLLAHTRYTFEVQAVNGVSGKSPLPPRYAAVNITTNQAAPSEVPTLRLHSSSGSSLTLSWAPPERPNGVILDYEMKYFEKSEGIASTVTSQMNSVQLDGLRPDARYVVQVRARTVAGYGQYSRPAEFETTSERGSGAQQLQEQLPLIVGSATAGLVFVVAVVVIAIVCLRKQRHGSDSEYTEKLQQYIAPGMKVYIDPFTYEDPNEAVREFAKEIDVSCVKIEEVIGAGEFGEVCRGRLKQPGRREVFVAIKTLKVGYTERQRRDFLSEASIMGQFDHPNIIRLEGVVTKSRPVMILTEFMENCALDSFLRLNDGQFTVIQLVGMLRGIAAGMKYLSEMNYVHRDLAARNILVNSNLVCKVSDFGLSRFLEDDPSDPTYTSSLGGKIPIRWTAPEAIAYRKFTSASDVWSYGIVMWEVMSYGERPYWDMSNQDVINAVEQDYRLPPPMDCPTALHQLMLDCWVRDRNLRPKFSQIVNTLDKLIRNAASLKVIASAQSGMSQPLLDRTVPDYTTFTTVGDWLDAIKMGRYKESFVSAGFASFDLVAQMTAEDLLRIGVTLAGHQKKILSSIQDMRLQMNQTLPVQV
T16 sequence (Q8IW41 whole entry): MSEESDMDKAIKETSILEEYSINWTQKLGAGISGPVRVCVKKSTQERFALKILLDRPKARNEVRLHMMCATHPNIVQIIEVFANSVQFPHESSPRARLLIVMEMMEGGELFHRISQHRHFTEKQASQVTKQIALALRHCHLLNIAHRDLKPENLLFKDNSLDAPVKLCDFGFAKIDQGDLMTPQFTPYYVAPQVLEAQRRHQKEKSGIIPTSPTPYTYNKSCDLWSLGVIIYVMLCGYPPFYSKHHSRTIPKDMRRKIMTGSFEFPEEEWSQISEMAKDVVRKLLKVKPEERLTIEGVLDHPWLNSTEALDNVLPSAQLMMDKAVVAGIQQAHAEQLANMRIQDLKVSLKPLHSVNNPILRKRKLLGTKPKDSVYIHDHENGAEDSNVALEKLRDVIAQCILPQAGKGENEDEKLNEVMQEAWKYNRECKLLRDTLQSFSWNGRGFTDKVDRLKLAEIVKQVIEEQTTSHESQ
T8 sequence (Q15831 whole entry): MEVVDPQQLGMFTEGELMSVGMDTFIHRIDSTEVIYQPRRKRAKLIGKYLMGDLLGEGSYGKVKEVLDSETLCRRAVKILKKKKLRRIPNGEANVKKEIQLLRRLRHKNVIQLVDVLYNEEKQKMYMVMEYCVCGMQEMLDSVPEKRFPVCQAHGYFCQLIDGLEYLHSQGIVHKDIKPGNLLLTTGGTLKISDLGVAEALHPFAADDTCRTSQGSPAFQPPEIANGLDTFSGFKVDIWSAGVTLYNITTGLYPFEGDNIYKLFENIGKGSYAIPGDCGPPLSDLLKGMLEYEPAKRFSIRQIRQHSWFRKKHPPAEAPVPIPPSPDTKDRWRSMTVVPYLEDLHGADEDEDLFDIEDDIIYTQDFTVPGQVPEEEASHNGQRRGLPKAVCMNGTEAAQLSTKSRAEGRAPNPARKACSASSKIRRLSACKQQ

## C#Cc1cccc(Nc2ncnc3cc(OC)c(OCCCN4CCOCC4)cc23)c1 [NRC-2694, N-(3-ethylnylphenyl)-7-methoxy-6-[3-(4-morpholinyl)propoxy]-4-quinazolinamine]
[1]
  % Ctrl @ 10000 nM: 72 % Ctrl
[2]
  % Ctrl @ 10000 nM: 17 % Ctrl
[3]
  % Ctrl @ 10000 nM: 91 % Ctrl
[4]
  % Ctrl @ 10000 nM: 80 % Ctrl
[5]
  % Ctrl @ 10000 nM: 100 % Ctrl
[6]
  % Ctrl @ 10000 nM: 6.8 % Ctrl
[7]
  % Ctrl @ 10000 nM: 72 % Ctrl
[8]
  % Ctrl @ 10000 nM: 69 % Ctrl
[9]
  % Ctrl @ 10000 nM: 23 % Ctrl
[10]
  % Ctrl @ 10000 nM: 90 % Ctrl
[11]
  % Ctrl @ 10000 nM: 83 % Ctrl
[12]
  % Ctrl @ 10000 nM: 82 % Ctrl
[13]
  % Ctrl @ 10000 nM: 100 % Ctrl
[14]
  % Ctrl @ 10000 nM: 67 % Ctrl
[15]
  % Ctrl @ 10000 nM: 0.95 % Ctrl
[16]
  % Ctrl @ 10000 nM: 79 % Ctrl
[17]
  % Ctrl @ 10000 nM: 38 % Ctrl
[18]
  % Ctrl @ 10000 nM: 63 % Ctrl
[19]
  % Ctrl @ 10000 nM: 50 % Ctrl
[20]
  % Ctrl @ 10000 nM: 75 % Ctrl
[21]
  % Ctrl @ 10000 nM: 97 % Ctrl
